In US20230382926A1, “COMPOUNDS AND USES THEREOF” (The University of The West Indies, priority 2022, published 2023):

Experiments:
[1] = test system: Klebsiella pneumoniae ATCC BAA-2814; experiment: Gene expression analysis by quantitative reverse transcription PCR; format: cell-based; settings: for ROB gene expression compared to untreated cells / soxS gene expression compared to untreated cells: Meropenem only 0.25 MIC (8 μg mL^−1)
Procedure: Cell treatment and RNA extraction: Overnight cultures of Klebsiella pneumoniae ATCC BAA-2814 grown on Brain Heart Infusion (BHI) agar was harvested and washed in phosphate buffer saline (pH=7.4) twice. Fresh Brain Heart infusion broth was inoculated with K. pneumoniae cells to a final concentration of 10^6 CFU mL^−1. Cells were subjected to the following treatments: T0—Vehicle only (ddH2O); T1—Meropenem only (0.25 MIC; 8 μg mL^−1); T2—Meropenem 0.25 MIC+SP-azaBIM 136 (2 ug mL^−1). Treated cells were incubated at 35° C. at 200 rpm and total RNA was extracted at 1 h and 6 h post exposure using TRIzol reagent (Life Technologies) following the manufacturer's protocol before eluting in DEPC treated water. Three biological replicates were included for each treatment.
Quantitative reverse transcription PCR analysis: Reverse transcription was done using the GoScript Reverse Transcriptase Kit (Promega, USA) employing a mixture (1:1) of random and oligo dT primers with 2 μg RNA as starting material in a 20-μL reaction following the manufacturers protocols. cDNA samples were then quantified by real-time PCR using specific primers in an Applied Biosystems 7500 Fast Real-Time PCR system (Life Technologies Corp., USA) and the data analysed using the 2^(−ΔΔct) method. Thermal cycling was performed using a two-step PCR amplification standard procedure at 95° C. for 30 s and 35 cycles of 95° C. for 5 s and 60° C. for 30 s. The expression levels of all the genes were normalized using the K. pneumoniae RNA polymerase sigma factor (rpoD) gene as an internal standard.
To examine this hypothesis, we investigated the expression of genes in K. pneumoniae ATCC […] that were affected by SP-azaBIM 136 treatment. Expression of key transcription factors and their associated downstream resistance and pathogenicity genes was examined in Klebsiella pneumoniae cells treated with meropenem and a combination of meropenem and SP-azaBIM 136. Cells in the exponential phase were either treated with 0.25 MIC (8 μg mL^−1) of Meropenem only or a combination of 0.25 MIC meropenem and 10 μg mL^−1 of SP-azaBIM 136. Untreated cells served as the control for baseline gene expression. Cells were exposed to each agent for 1 h and 6 h, after which the total RNA was extracted, and cDNA synthesis performed. […] The addition of SP-azaBIM 136 was theorized to revert the expression of the relevant genes closer to baseline expression levels.

[2] = test system: clinical isolate CR-K. pneumoniae 7225; experiment: Non-lethal mouse peritonitis infection model; format: in vivo, Swiss albino mice; settings: monotherapy at 10 mg kg^−1; preliminary dosing experiments
Procedure: For both lethal and non-lethal infection models involving Carbapenem resistant Klebsiella pneumoniae suitable strains, number of mice per treatment and bacterial infection dose were predetermined in preliminary experiments.
Each mouse (n=6 per group) received an intraperitoneal (i.p.) injection of 200 μl of bacterial suspension (1×10^4 CFU ml^−1).
Mice were then treated once daily for two subsequent days (i.e. 24 h and 48 h). Twenty-four-hours after the last dose, the mice were euthanized via cervical dislocation and their spleen and liver excised, homogenized in PBS and plated onto Hichrome™ Klebsiella selective media (HiMedia Laboratories, PA, USA). The plates were incubated at 35° C. for 24 h and bacterial counts were determined (CFU g^−1 organ).
Based on the significance of the SP-azaBIMs to restore the in vitro efficacy of antibiotics against high priority pathogenic bacteria, we examined if these compounds could provide proof of concept that they could be used to treat in vivo infections. To test this, we performed both non-lethal and lethal intraperitoneal infection models in Swiss Albino mice.
There was a significant reduction in the K. pneumoniae load in both the liver (FIG. 2a) and spleen (FIG. 2b) for the combination therapies compared to the respective antibiotic monotherapies. […] Colistin (Col) (10 mg kg^−1) was used as the positive control in this case. K. pneumoniae load in the liver (FIG. 2a) and spleen (FIG. 2b) was determined by selective plating on Hichrome™ Klebsiella selective media. Data bars represent the average (n=6 mice per treatment group)±standard error.

[3] = test system: Methicillin resistant Staphylococcus aureus; experiment: Broth microdilution minimum inhibitory concentration; format: cell-based; settings: compound alone
Procedure: (§1) Antibacterial activity of the synthesized compounds was determined following guidelines established by the Clinical and Laboratory Standards Institute M07-A10 (CLSI 2015), following the broth microdilution method. Briefly, the test articles were dissolved in 100% DMSO, diluted by 2-fold serial titrations in the same vehicle (100% DMSO), for a total of 11 concentrations. A 4 μL aliquot of each dilution was then added to 196 μL of broth medium seeded with the bacterial suspension in wells of a 96 well plate (bacterial count: 2×10^5 to 8×10^5 colony forming units/mL final). The highest test substance concentration was 1028 μg/mL, and the final vehicle concentration was 2 percent. Following incubation, the test plate was visually examined, and each well was scored for growth or complete inhibition of growth. The minimum inhibitory concentration was determined as the lowest concentration were no growth of the bacterial was observed. Each test article was assayed in duplicate.

[4] = test system: Carbapenem resistant Acinetobacter baumannii; experiment: as above; format: cell-based; settings: compound alone
Procedure: as §1

[5] = test system: Vancomycin resistant Enterococcus faecalis; experiment: as above; format: cell-based; settings: compound alone
Procedure: as §1

[6] = test system: Carbapenem resistant Klebsiella pneumoniae; experiment: as above; format: cell-based; settings: compound alone
Procedure: as §1

[7] = test system: Multidrug resistant Pseudomonas aeruginosa; experiment: as above; format: cell-based; settings: compound alone
Procedure: as §1

MRSA = experiment: Rescue concentration of substituted phenyl azaindole derivatives; format: cell-based, Staphylococcus aureus; settings: Amoxicillin fixed at 2 μg/mL
Procedure: (§2) The antibiotic adjuvant activity of the SPazaBIMs were evaluated in combination with representative antibiotics (representing 13 antibiotic classes) against the 19 pathogens strains listed in Table 3. To assess the adjuvant properties of the SP-azaBIM molecules, a modified checkerboard minimum inhibitory concentration assay was used. A fixed concentration of the respective antibiotic (susceptible breakpoint concentration) was mixed with a twofold dilution series of the test SP-azaBIM (FIG. 1). This was to determine the concentration of SP-azaBIM needed potentiate the antibiotic at a clinically susceptible breakpoint concentration. Antibiotic susceptible breakpoint concentrations for the respective bacteria were determined using Clinical Laboratory Standards Institute (CLSI) criteria M100 ED31.
(§3) In this study, only those antibiotics to which the bacterial was classed as resistant were included in the adjuvant assays. In this assay we recorded the rescue concentration of the SP-BIM for a respective antibiotic. The rescue concentration was defined as the concentration of the adjuvant that reduces the minimum inhibitory concentration (MIC) of an antibiotic to the susceptibility breakpoint.
(§4) Immediately prior to testing, the respective antibiotic and SP-azaBIM was dissolved in sterile deionised water at 20× the required test concentration. Each microtiter well was then inoculated with 180 μl of bacterial inoculum of 10^6 CFU/ml in ca-MHB, and 10 μl each if the antibiotic and SP-azaBIM was added to the plates. These plates were then incubated at 35° C. for 24 h under aerobic conditions. A similar method was followed for the fastidious pathogens except that they were cultured in ca-MHB with 5% sheep blood and 5% CO2.
(§5) Bacterial growth was visually inspected after the incubation period and the rescue concentration of the test SP-azaBIM was determined as the lowest concentration of the compound needed to reduce bacterial growth by 99.99% at the susceptible breakpoint concentration of the antibiotic. For example, CLSI states that Pseudomonas aeruginosa is susceptible to the Imipenem if the MIC is ≤2 μg mL^−1. If the bacteria can tolerate this concentration in vitro, then the bacteria has an intermediate or absolute resistance toward that antibiotic. The goal was to determine the concentration of SP-azaBIM needed to cause P. aeruginosa death at 2 μg mL^−1 of Imipenem therefore restoring susceptibility of the bacteria to toward the antibiotic.
(§6) Phenyl azaindole compounds are also tested for their adjuvant activities and the method is shown in Example 39.

K. pneumoniae = experiment: as above; format: cell-based; settings: for Rescue concentration, K. pneumoniae Ciprofloxacin (1 μg/mL): Ciprofloxacin fixed at 1 μg/mL; for Rescue concentration, K. pneumoniae Imipenem (1 μg/mL): Imipenem fixed at 1 μg/mL
Procedure: as §2, §3, §4, §5, §6

P. aeruginosa = experiment: as above; format: cell-based; settings: Imipenem fixed at 1 μg/mL
Procedure: as §2, §3, §4
Bacterial growth was visually inspected after the incubation period and the rescue concentration of the test SP-azaBIM was determined as the lowest concentration of the compound needed to reduce bacterial growth by 99.99% at the susceptible breakpoint concentration of the antibiotic. […] If the bacteria can tolerate this concentration in vitro, then the bacteria has an intermediate or absolute resistance toward that antibiotic. […]
as §6

MIC [3]	MIC [4]	MIC [5]	MIC [6]	MIC [7]	Compound	mexA efflux pump gene expression above untreated cells (peak) ([1]; Meropenem only)	norB efflux pump gene expression above untreated cells (peak) ([1]; Meropenem only)	ROB gene expression compared to untreated cells ([1]; 1 h)	ROB gene expression compared to untreated cells ([1]; 6 h)	soxS gene expression compared to untreated cells ([1]; 6 h)	soxS gene expression compared to untreated cells ([1]; initial (1 h))	Efficacy of antibiotic monotherapy against K. pneumoniae 7225 [2]	Rescue concentration, MRSA Amoxicillin (2 μg/mL) (MRSA)	Rescue concentration, K. pneumoniae Ciprofloxacin (1 μg/mL) (K. pneumoniae)	Rescue concentration, K. pneumoniae Imipenem (1 μg/mL) (K. pneumoniae)	Rescue concentration, P. aeruginosa Imipenem (1 μg/mL) (P. aeruginosa)
					C[C@@H](O)[C@H]1C(=O)N2C(C(=O)O)=C(S[C@@H]3CN[C@H](C(=O)N(C)C)C3)[C@H](C)[C@H]12 [Meropenem, reference compound]	8.7 folds	2.2 folds	approximately 3 folds	12 folds	18 folds	3 folds	ineffective				
< 1020 µg/mL	< 1020 µg/mL	< 1020 µg/mL	< 1020 µg/mL	< 1020 µg/mL	Oc1ccc(C(O)c2c[nH]c3ncc(F)cc23)cc1 (stereo not shown) [4OH-5Fl-7aza-OH, 4-((5-fluoro-1H-pyrrolo[2,3-b]pyridin-3-yl)(hydroxy)methyl)phenol]								16 µg/mL	<256 µg/mL	<256 µg/mL	256 µg/mL
< 1020 µg/mL	< 1020 µg/mL	< 1020 µg/mL	< 1020 µg/mL	< 1020 µg/mL	O=[N+]([O-])c1cccc(C(O)c2c[nH]c3ncccc23)c1 (stereo not shown) [Compound 3NO2-7aza-OH, (3-nitrophenyl)(1H-pyrrolo[2,3-b]pyridin-3-yl)methanol]								<256 µg/mL	<256 µg/mL	<256 µg/mL	<256 µg/mL
< 1020 µg/mL	< 1020 µg/mL	< 1020 µg/mL	< 1020 µg/mL	< 1020 µg/mL	O=Cc1cccc(C(O)c2c[nH]c3cnccc23)c1 (stereo not shown) [ISO-6aza-OH, 3-(hydroxy(1H-pyrrolo[2,3-c]pyridin-3-yl)methyl)benzaldehyde]								64 µg/mL	<256 µg/mL	<256 µg/mL	<256 µg/mL
< 1020 µg/mL	< 1020 µg/mL	< 1020 µg/mL	< 1020 µg/mL	< 1020 µg/mL	O=[N+]([O-])c1cccc(C(O)c2c[nH]c3ncc(F)cc23)c1 (stereo not shown) [3NO2-5Fl-7aza-OH, (5-fluoro-1H-pyrrolo[2,3-b]pyridin-3-yl)(3-nitrophenyl)methanol]								128 µg/mL	<256 µg/mL	<256 µg/mL	<256 µg/mL
< 1020 µg/mL	< 1020 µg/mL	< 1020 µg/mL	< 1020 µg/mL	< 1020 µg/mL	O=[N+]([O-])c1ccc(C(O)c2c[nH]c3ncc(Cl)cc23)cc1 (stereo not shown) [4NO2-5Cl-7aza-OH, (5-chloro-1H-pyrrolo[2,3-b]pyridin-3-yl)(4-nitrophenyl)methanol]								32 µg/mL	<256 µg/mL	<256 µg/mL	<256 µg/mL
< 1020 µg/mL	< 1020 µg/mL	< 1020 µg/mL	< 1020 µg/mL	< 1020 µg/mL	O=[N+]([O-])c1cccc(C(O)c2c[nH]c3cnccc23)c1 (stereo not shown) [Compound 3NO2-6aza-OH, (3-nitrophenyl)(1H-pyrrolo[2,3-c]pyridin-3-yl)methanol]								64 µg/mL	128 µg/mL	256 µg/mL	<256 µg/mL
< 1020 µg/mL	< 1020 µg/mL	< 1020 µg/mL	< 1020 µg/mL	< 1020 µg/mL	Oc1ccc(C(c2c[nH]c3ncc(Cl)cc23)c2c[nH]c3ncc(Cl)cc23)cc1 [4OH-Bis 5Cl 7aza, 4-(bis(5-chloro-1H-pyrrolo[2,3-b]pyridin-3-yl)methyl)phenol]								2 µg/mL	<256 µg/mL	<256 µg/mL	<256 µg/mL
